According to patent publication US11058680B2, “Combinations of opioid/TLR4 antagonists and acetaminophen for use in the treatment of emotional pain and insomnia” (Allodynic Threapeutics, LLC, priority 2016, dated 2021):
Values joined by “and” are separate entries in the source; they are usually repeats but may differ in a detail not shown here. Identical values can stand only once.

Test system: migraine attacks
Experiment: Naltrexone/acetaminophen open-label pilot study, acute treatment of migraine: headache pain (4-point scale; relief score ≤1, pain-free score = 0), associated symptoms, additional meds
Assay type: in vivo, human
Description: Sixteen unique patients were enrolled in an open phase pilot study for the acute treatment of migraine attacks, insomnia, and emotional pain. Of the sixteen patients, eleven were evaluated for one migraine attack, one for two attacks, two for four attacks, one for six attacks, and one for fourteen attacks. A total of forty-one […] treatments were evaluated. Patients received a single dose of one of the following treatment options:
The majority of the patients remained in the clinic for observation for 2 hours after dosing. They completed headache diary assessments immediately before and after dosing at time points: 7, 15, and 30 minutes; and 1, 1.5, 2, 3, 6, 12, 24, and 48 hours. Headache pain was assessed on a 4-point scale (0=none; 1=mild; 2=moderate; 3=severe). The assessment of photophobia, phonophobia, nausea, and neck/shoulder pain was assessed as present or absent. The assessment of emotional pain was recorded on a 4-point scale (0=none, 1=mild, 2=moderate, 3=severe). The assessment of difficulty sleeping or falling asleep (insomnia) was assessed on a 4-point scale (0=none, 1=mild, 2=moderate, 3=severe) at baseline, for the night before treatment and for the following nights at 24, and 48 hours. Patients recorded side effects severity at each time point. Patients recorded the time of the first rescue medication dose and all additional headache medications used within 48 hours. Patients were required to stay awake to record their assessments in the first 2 hours, sleeping was permitted thereafter. While asleep, assessments were completed according to patients' best estimation. For data analysis, it was assumed that a migraine attack is a unique patient. Patients were asked to specify (yes or no answer) to whether they experienced emotional pain symptoms such as: hurt feelings, sadness, fear, or anger. Patients who replied positively to having emotional pain were asked to specify the cause into one of the following options: relationship, work/school, money/debt, health, or loss/grief.

[1] = 12 h, NTX/APAP 2.25 mg/325 mg, NTX 2.25 mg
[2] = 12 h, NTX/APAP 3.25 mg/325 mg, NTX 3.25 mg
[3] = 12 h, NTX/APAP 5 mg/325 mg, NTX 5 mg
[4] = 12 h, NTX/APAP […]325 mg, NTX 1.5 mg
[5] = 12 h, naltrexone/acetaminophen 2.25 mg/325 mg (N=21), naltrexone 2.25 mg (N=9)
[6] = 24 h, NTX/APAP 2.25 mg/325 mg, NTX 2.25 mg
[7] = 24 h, NTX/APAP 3.25 mg/325 mg, NTX 3.25 mg
[8] = 24 h, NTX/APAP 5 mg/325 mg, NTX 5 mg
[9] = 24 h, NTX/APAP […]325 mg, NTX 1.5 mg
[10] = 24 h, naltrexone/acetaminophen 2.25 mg/325 mg (N=21), naltrexone 2.25 mg (N=9)
[11] = 48 h, NTX/APAP 2.25 mg/325 mg, NTX 2.25 mg
[12] = 48 h, NTX/APAP 3.25 mg/325 mg, NTX 3.25 mg
[13] = 48 h, NTX/APAP 5 mg/325 mg, NTX 5 mg
[14] = 48 h, NTX/APAP […]325 mg, NTX 1.5 mg
[15] = 48 h, naltrexone/acetaminophen 2.25 mg/325 mg (N=21), naltrexone 2.25 mg (N=9)

With `O=C1CC[C@@]2(O)[C@H]3Cc4ccc(O)c5c4[C@@]2(CCN3CC2CC2)[C@H]1O5` [naltrexone] the Nausea-free [1] was 9 (100) n (%), the Neck/shoulder pain-free [1] was 9 (100) n (%) and the Phonophobia-free [1] was 9 (100) n (%). The Photophobia-free [1] was 8 (88) n (%), the Additional meds taken [2] was 0 and the Headache pain-free [2] was 3 (100) n (%). The Headache pain-relief [2] was 3 (100) n (%), the Most bothersome symptom-free [2] was 3 (100) n (%) and the Nausea-free [2] was 3 (100) n (%). For the same compound, the Neck/shoulder pain-free [2] was 3 (100) n (%), the Phonophobia-free [2] was 3 (100) n (%) and the Photophobia-free [2] was 3 (100) n (%). For the same compound, the Additional meds taken [3] was 0, the Headache pain-free [3] was 1 (100) n (%) and the Headache pain-relief [3] was 1 (100) n (%). The Most bothersome symptom-free [3] was 1 (100) n (%), the Nausea-free [3] was 1 (100) n (%) and the Neck/shoulder pain-free [3] was 1 (100) n (%). For the same compound, the Phonophobia-free [3] was 1 (100) n (%), the Photophobia-free [3] was 1 (100) n (%) and the Additional meds taken [4] was 0. For the same compound, the Headache pain-free [4] was 3 (100) n (%), the Headache pain-relief [4] was 3 (100) n (%) and the Most bothersome symptom-free [4] was 3 (100) n (%). For the same compound, the Nausea-free [4] was 3 (100) n (%), the Neck/shoulder pain-free [4] was 3 (100) n (%) and the Phonophobia-free [4] was 3 (100) n (%). For the same compound, the Photophobia-free [4] was 3 (100) n (%), the Additional meds taken (12 h, combined doses) was 0 and the Headache pain-free (12 h, combined doses) was 14 (88) n (%). For the same compound, the Headache pain-relief (12 h, combined doses) was 16 (100) n (%), the Most bothersome symptom-free (12 h, combined doses) was 16 (100) n (%) and the Nausea-free (12 h, combined doses) was 16 (100) n (%). The Neck/shoulder pain-free (12 h, combined doses) was 16 (100) n (%), the Phonophobia-free (12 h, combined doses) was 16 (100) n (%) and the Photophobia-free (12 h, combined doses) was 15 (94) n (%). The Headache pain-free (12 h, naltrexone 1.5 mg (N=3)) was 100%, the Headache pain-free [5] was 77% and 100% and the Headache pain-relief [5] was 100%. The Most bothersome symptom-free [5] was 100%, the Headache pain-free (12 h, naltrexone/acetaminophen 3.25 mg/325 mg (N=3), naltrexone 3.25 mg (N=3)) was 100% and the Additional meds taken [6] was 0. The Headache pain-free [6] was 8 (88) n (%), the Headache pain-relief [6] was 9 (100) n (%) and the Most bothersome symptom-free [6] was 9 (100) n (%). For the same compound, the Nausea-free [6] was 9 (100) n (%), the Neck/shoulder pain-free [6] was 9 (100) n (%) and the Phonophobia-free [6] was 9 (100) n (%). The Photophobia-free [6] was 9 (100) n (%), the Additional meds taken [7] was 0 and the Headache pain-free [7] was 3 (100) n (%). For the same compound, the Headache pain-relief [7] was 3 (100) n (%), the Most bothersome symptom-free [7] was 3 (100) n (%) and the Nausea-free [7] was 3 (100) n (%). For the same compound, the Neck/shoulder pain-free [7] was 3 (100) n (%), the Phonophobia-free [7] was 3 (100) n (%) and the Photophobia-free [7] was 3 (100) n (%). For the same compound, the Additional meds taken [8] was 0, the Headache pain-free [8] was 1 (100) n (%) and the Headache pain-relief [8] was 1 (100) n (%). For the same compound, the Most bothersome symptom-free [8] was 1 (100) n (%), the Nausea-free [8] was 1 (100) n (%) and the Neck/shoulder pain-free [8] was 1 (100) n (%). The Phonophobia-free [8] was 1 (100) n (%), the Photophobia-free [8] was 1 (100) n (%) and the Additional meds taken [9] was 0. The Headache pain-free [9] was 3 (100) n (%), the Headache pain-relief [9] was 3 (100) n (%) and the Most bothersome symptom-free [9] was 3 (100) n (%). For the same compound, the Nausea-free [9] was 3 (100) n (%), the Neck/shoulder pain-free [9] was 3 (100) n (%) and the Phonophobia-free [9] was 3 (100) n (%). For the same compound, the Photophobia-free [9] was 3 (100) n (%), the Additional meds taken (24 h, combined doses) was 0 and the Headache pain-free (24 h, combined doses) was 15 (94) n (%). For the same compound, the Headache pain-relief (24 h, combined doses) was 16 (100) n (%), the Most bothersome symptom-free (24 h, combined doses) was 16 (100) n (%) and the Nausea-free (24 h, combined doses) was 16 (100) n (%). For the same compound, the Neck/shoulder pain-free (24 h, combined doses) was 16 (100) n (%), the Phonophobia-free (24 h, combined doses) was 16 (100) n (%) and the Photophobia-free (24 h, combined doses) was 16 (100) n (%). The Headache pain-free (24 h, naltrexone 1.5 mg (N=3)) was 100%, the Headache pain-free [10] was 88% and 100% and the Headache pain-relief [10] was 100%. The Most bothersome symptom-free [10] was 100%, the Headache pain-free (24 h, naltrexone/acetaminophen 3.25 mg/325 mg (N=3), naltrexone 3.25 mg (N=3)) was 100% and the Additional meds taken [11] was 0 (0). For the same compound, the Headache pain-free [11] was 9 (100) n (%), the Headache pain-relief [11] was 9 (100) n (%) and the Most bothersome symptom-free [11] was 9 (100) n (%). For the same compound, the Nausea-free [11] was 9 (100) n (%), the Neck/shoulder pain-free [11] was 9 (100) n (%) and the Phonophobia-free [11] was 9 (100) n (%). For the same compound, the Photophobia-free [11] was 9 (100) n (%), the Additional meds taken [12] was 0 and the Headache pain-free [12] was 3 (100) n (%). The Headache pain-relief [12] was 3 (100) n (%), the Most bothersome symptom-free [12] was 3 (100) n (%) and the Nausea-free [12] was 3 (100) n (%). For the same compound, the Neck/shoulder pain-free [12] was 3 (100) n (%), the Phonophobia-free [12] was 3 (100) n (%) and the Photophobia-free [12] was 3 (100) n (%). The Additional meds taken [13] was 1, the Headache pain-free [13] was 1 (100) n (%) and the Headache pain-relief [13] was 1 (100) n (%). For the same compound, the Most bothersome symptom-free [13] was 1 (100) n (%), the Nausea-free [13] was 1 (100) n (%) and the Neck/shoulder pain-free [13] was 1 (100) n (%). For the same compound, the Phonophobia-free [13] was 1 (100) n (%), the Photophobia-free [13] was 1 (100) n (%) and the Additional meds taken [14] was 0. For the same compound, the Headache pain-free [14] was 2 (66) n (%), the Headache pain-relief [14] was 2 (66) n (%) and the Most bothersome symptom-free [14] was 2 (66) n (%). The Nausea-free [14] was 2 (66) n (%), the Neck/shoulder pain-free [14] was 3 (100) n (%) and the Phonophobia-free [14] was 3 (100) n (%). For the same compound, the Photophobia-free [14] was 2 (66) n (%), the Additional meds taken (48 h, combined doses) was 1 and the Headache pain-free (48 h, combined doses) was 15 (94) n (%). The Headache pain-relief (48 h, combined doses) was 15 (94) n (%), the Most bothersome symptom-free (48 h, combined doses) was 15 (94) n (%) and the Nausea-free (48 h, combined doses) was 15 (94) n (%). For the same compound, the Neck/shoulder pain-free (48 h, combined doses) was 16 (100) n (%), the Phonophobia-free (48 h, combined doses) was 16 (100) n (%) and the Photophobia-free (48 h, combined doses) was 15 (94) n (%). For the same compound, the Headache pain-free (48 h, naltrexone 1.5 mg (N=3)) was 100%, the Headache pain-free [15] was 100% and the Headache pain-relief [15] was 100%. The Most bothersome symptom-free [15] was 100%, the Headache pain-free (48 h, naltrexone/acetaminophen 3.25 mg/325 mg (N=3), naltrexone 3.25 mg (N=3)) was 100% and the Headache pain-free (from 90 minutes to 48 hours, naltrexone alone, all dosages (1.5, 2.25, 3.25, 5 mg)) was 100%.
